Like-named read-outs stand apart in the source and are kept apart here.
Assays:
[1] = system: HIV-1 Env pseudovirus B41; assay: Single-cycle assay TZM-bl, Env pseudovirus panel
[2] = system: HIV-1 Env pseudovirus BJ613.W6M.ENV.E1; assay: Single-cycle assay, Paired Infant and Maternal Env clones
[3] = system: HIV-1 Env pseudovirus MJ613.W0M.ENV.A2; assay: as above
MT-2 cells = assay: Cytotoxicity; type: cell-based, human; conditions: read-out: MT-2 CC50, MTS, mean ± SD, n=3
[4] = system: HIV-1 Env pseudovirus QD435.100M.ENV.B5; assay: Single-cycle assay TZM-bl, Env pseudovirus panel
[5] = system: HIV-1 Env pseudovirus TRO, clone 11; assay: Single-cycle assay TZM-bl, Env pseudovirus panel
[6] = system: HIV-1 Env pseudovirus QB099.391M.ENV.C8; assay: Single-cycle assay TZM-bl, Env pseudovirus panel
[7] = system: HIV-1 Env pseudovirus CRF02_AG, clone 251; assay: Single-cycle assay TZM-bl, Env pseudovirus panel
[8] = system: panel of HIV-1 Env pseudoviruses; type: cell-based
[9] = system: HIV-1 Env pseudovirus QH0692, clone 42; assay: Single-cycle assay TZM-bl, Env pseudovirus panel
[10] = system: HIV-1 Env pseudovirus HIV-16936-2, clone 21; assay: Single-cycle assay TZM-bl, Env pseudovirus panel
HIV-1LAI = assay: Multi-cycle infection assay in PBMC; conditions: read-out: IC50 HIV-1LAI; human PBMC; CXCR4-tropic lab-adapted virus; p24, 7 days
[11] = system: HIV-1 Env pseudovirus Du422, clone 1; assay: Single-cycle assay TZM-bl, Env pseudovirus panel
human PBMC = assay: Cytotoxicity; type: cell-based; conditions: human PBMC, 7 days, MTS
[12] = system: HIV-1 Env pseudovirus ML274.W0M.ENV.B1; assay: Single-cycle assay, Paired Infant and Maternal Env clones
[13] = system: HIV-1 Env pseudovirus BL274.W6M.ENV.A3; assay: as above
TZM-bl cells = assay: Cytotoxicity; type: cell-based; conditions: read-out: TZMb-l CC50; TZM-bl cells, 3 days, MTS; mean ± SD, n=3
HIV-1IIIB = assay: Multi-cycle infection assay in MT-2 cells; type: cell-based; conditions: read-out: MT-2 IC50, p24, mean ± SD, n=3
[14] = system: HIV-1 Env pseudovirus REJO4541, clone 67; assay: Single-cycle assay TZM-bl, Env pseudovirus panel
[15] = system: HIV-1 Env pseudovirus KNH1144; assay: Single-cycle assay TZM-bl, Env pseudovirus panel
Cytotoxicity [16] = type: cell-based, human; conditions: human, MT-2 cells, MT-2 CC50, MT-2 cells, MTS; mean ± SD, n=3
Cytotoxicity [17] = type: cell-based; conditions: human, TZM-bl cells, TZMb-l CC50, TZM-bl cells, 3 days, MTS; mean ± SD, n=3
[18] = system: HIV-1 Env pseudovirus THRO4156, clone 18; assay: Single-cycle assay TZM-bl, Env pseudovirus panel

SMILES | CC50 (MT-2 cells) [µM] | CC50 (TZM-bl cells) [µM] | IC50 ([1]; TZM-bl) [µM] | IC50 (HIV-1IIIB) [µM] | IC50 [2] [µM] | IC50 [3] [µM] | IC50 [14] [µM] | IC50 [15] [µM] | CC50 at 4 days (Cytotoxicity [16]) [µM] | IC50 ([4]; TZM-bl) [µM] | IC50 ([5]; TZM-bl) [µM] | IC50 ([6]; TZM-bl) [µM] | IC50 ([7]; TZM-bl) [µM] | IC50 ([9]; TZM-bl) [µM] | IC50 ([10]; TZM-bl) [µM] | IC50 ([11]; TZM-bl) [µM] | IC50 [12] [µM] | IC50 [13] [µM] | CC50 at 3 days (Cytotoxicity [17]) [µM] | IC50 [18] [µM] | other results
Cc1nc([C@@H](CN)NC(=O)c2ccc(-c3ccc(F)c(F)c3)[nH]2)sc1CO (single isomer, unassigned) [NBD-14113, reference compound] | 96.8 ± 1.8 | 84.1 ± 1.3 | – | – | – | – | – | – | – | – | – | – | – | – | – | – | – | – | – | – | IC50 ([1]; subtype B, B41, TZM-bl cells): 3.4 ± 0.1 µM; IC50 ([2]; subtype A, NIH # 11521-B (infant), BJ613.W6M.ENV.E1): 2.8 ± 0.4 µM; IC50 ([3]; subtype A, NIH # 11534-M (maternal), MJ613.W0M.ENV.A2): 4.9 ± 0.2 µM; IC50 ([4]; subtype D, NIH # 11916, QD435.100M.ENV.B5, TZM-bl cells): 2.2 ± 0.3 µM; IC50 ([5]; subtype B, NIH # 11023, TRO, clone 11, TZM-bl cells): 5.1 ± 0.1 µM; IC50 ([6]; subtype C, NIH # 11909, QB099.391M.ENV.C8, TZM-bl cells): 4 ± 0.3 µM; IC50 ([7]; subtype AG, NIH # 11595, CRF02_AG, clone 251, TZM-bl cells): 3 ± 0.2 µM; IC50 ([8]; read-out: IC50 Mean ± SEM: Overall (n=34), mean over 34 HIV-1 Env pseudoviruses): 3.9 ± 0.17 µM; IC50 ([8]; read-out: IC50 Mean ± SEM: Subtype A (n=5), mean over subtype A pseudoviruses): 3.44 ± 0.36 µM; IC50 ([8]; read-out: IC50 Mean ± SEM: Subtype B (n=10), mean over subtype B pseudoviruses): 3.79 ± 0.18 µM; IC50 ([8]; read-out: IC50 Mean ± SEM: Subtype C (n=7), mean over subtype C pseudoviruses): 4.04 ± 0.43 µM; IC50 ([8]; read-out: IC50 Mean ± SEM: Subtype D (n=3), mean over subtype D pseudoviruses): 3.5 ± 0.75 µM; IC50 ([9]; subtype B, NIH # 11018, QH0692, clone 42, TZM-bl cells): 4.3 ± 0.4 µM; IC50 ([10]; subtype C, NIH # 11504, HIV-16936-2, clone 21, TZM-bl cells): 5.9 ± 0.2 µM; IC50 (HIV-1LAI): 3.8 ± 1.1 µM; IC50 ([11]; subtype C, NIH # 11308, Du422, clone 1, TZM-bl cells): 3 ± 0.1 µM; CC50 (human PBMC): 47.1 ± 2.6 µM; IC50 ([12]; subtype A, NIH # 11540-M (maternal), ML274.W0M.ENV.B1): 4.5 ± 0.6 µM; IC50 ([13]; subtype A, NIH # 11525-B (infant), BL274.W6M.ENV.A3): 5.7 ± 0.3 µM
Cc1nc(C(CN)NC(=O)c2ccc(-c3ccc4c(c3)OCO4)[nH]2)sc1CO (centres unmarked) [NBD-14110, N-(2-amino-1-(5-(hydroxymethyl)-4-methylthiazol-2-yl)ethyl)-5-(benzo[d][1,3]dioxol-5-yl)-1H-pyrrole-2-carboxamide] | – | – | 2 ± 0.1 | 3.8 ± 1.4 | 2.8 ± 0.1 | 4.9 ± 0.1 | 3.4 ± 0.3 | 5.9 ± 0.4 | 193 ± 6.3 | 2.4 ± 0.2 | 2.4 ± 0.4 | 4.3 ± 0.5 | 2.5 ± 0.1 | 8.2 ± 0.2 | 3.5 ± 0.1 | 1.8 ± 0.2 | 7.1 ± 0.3 | 7.2 ± 0.1 | 146 ± 7.6 | 2.7 ± 0.2 | –
NCC(NC(=O)c1ccc(-c2ccc3c(c2)OCO3)[nH]1)c1ncc(CO)s1 (centres unmarked) [NBD-14123, N-(2-amino-1-(5-(hydroxymethyl)thiazol-2-yl)ethyl)-5-(benzo[d][1,3]dioxol-5-yl)-1H-pyrrole-2-carboxamide] | – | – | 2.8 ± 0.3 | – | 2.5 ± 0.1 | 4 ± 0.1 | 3.4 ± 0.2 | 4.1 ± 0.4 | 192 ± 2.6 | 3.5 ± 0.3 | 3.6 ± 0.2 | 4.4 ± 0.6 | 3.1 ± 0.2 | 6.4 ± 0.1 | 4.4 ± 0.5 | 2.5 ± 0.3 | 5.6 ± 0.4 | 5.7 ± 0.3 | 142 ± 2.6 | 3.1 ± 0.1 | –
CNCC(NC(=O)c1ccc(-c2ccc3c(c2)OCO3)[nH]1)c1nc(CO)cs1 (centres unmarked) [NBD-14159, 5-(benzo[d][1,3]dioxol-5-yl)-N-(1-(4-(hydroxymethyl)thiazol-2-yl)-2-(methylamino)ethyl)-1H-pyrrole-2-carboxamide] | 180 ± 2 | 95.8 ± 1.4 | 1.7 ± 0.1 | 2.98 ± 0.1 | 3 ± 0.1 | 3.1 ± 0.3 | 3.1 ± 0.4 | 4 ± 0.3 | – | 3.3 ± 0.2 | 4.4 ± 0.6 | 5 ± 0.1 | 3.5 ± 0.1 | 5.8 ± 0.7 | 5.3 ± 0.2 | 3.1 ± 0.3 | 5.4 ± 0.5 | 4.2 ± 0.5 | – | 2.7 ± 0.2 | –

Reference: article PMC6446940 (ChemMedChem, 2018)
